Reference: patent US20260055108A1, “TRIAZINE COMPOUNDS AND USES THEREOF” (HUTCHMED LIMITED, priority 2022, published 2026)

Experiments:
[1] = test system: MV-4-11 cells (human acute myelogenous leukemia cell line carrying MLL-AF4 mutation); test: Cell proliferation assay, MV-4-11 (CellTiter-Glo); assay type: cell-based; settings: Homo sapiens, MV4-11, 72 h, MV-4-11 cells, 3 days treatment, CellTiter-Glo; read-out: GI50
Procedure, shortened: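 MV-4-11 cells (3000/well, IMDM with 10% HIFBS and 50 μM β-mercaptoethanol) exposed to compound at 1.100–0.001 μM final, 0.1% DMSO, for 3 days at 37°C. Viability read by CellTiter-Glo luminescence on day 0 and day 3, normalised to day-0 and untreated wells.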

[2] = target: Recombinant human Menin protein (2-610) / MLL polypeptide binding (Homo sapiens (Human), UniProt O00255); test: Menin and MLL protein binding at a molecular level (fluorescence polarization method); settings: inhibition of Menin / MLL polypeptide binding
Recombinant human Menin protein (2-610) / MLL polypeptide binding, sequence (O00255 2-610): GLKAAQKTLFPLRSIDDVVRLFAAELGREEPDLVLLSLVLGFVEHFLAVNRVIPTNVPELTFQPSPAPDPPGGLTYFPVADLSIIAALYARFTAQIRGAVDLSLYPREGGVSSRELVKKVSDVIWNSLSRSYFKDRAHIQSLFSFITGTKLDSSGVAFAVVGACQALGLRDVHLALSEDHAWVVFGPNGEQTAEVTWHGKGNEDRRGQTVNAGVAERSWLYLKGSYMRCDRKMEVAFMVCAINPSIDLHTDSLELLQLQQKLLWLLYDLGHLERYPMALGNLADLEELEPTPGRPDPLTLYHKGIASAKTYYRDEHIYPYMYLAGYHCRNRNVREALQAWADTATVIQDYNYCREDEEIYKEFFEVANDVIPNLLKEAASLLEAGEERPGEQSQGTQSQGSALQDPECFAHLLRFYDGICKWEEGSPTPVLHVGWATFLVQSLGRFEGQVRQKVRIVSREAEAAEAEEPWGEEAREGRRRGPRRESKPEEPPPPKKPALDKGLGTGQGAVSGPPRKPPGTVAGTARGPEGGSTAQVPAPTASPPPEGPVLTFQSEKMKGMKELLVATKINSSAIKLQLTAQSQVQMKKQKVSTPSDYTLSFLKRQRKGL
Procedure, shortened: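 Binding of recombinant human Menin (2-610) to 6-FAM-labelled MLL peptide measured by fluorescence polarization (ex 480/em 535 nm) in Tris/NaCl/TCEP buffer, pH 7.5, 2% DMSO. Compound preincubated with Menin 30 min at room temperature, then peptide added for 30 min in the dark. Tested at 1.000 down to 0.0005 μM final.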

SMILES: COc1cc(N2CCC(CN3CCC4(CC3)CN(c3ncnnc3Oc3ccc(F)cc3-c3ccnn3C(C)C)C4)CC2)nnc1OC [Compound 101]
- GI50 [1]: 2 nM
- IC50 [2]: 0.9 nM

SMILES: CCN(C(=O)c1cc(F)ccc1Oc1nncnc1N1CC2(CCN(CC3CCN(C(=O)C4CC(C)(C)C4)CC3)CC2)C1)C(C)C [Compound 4]
- GI50 [1]: 8 nM
- IC50 [2]: 3.2 nM

SMILES: CCN(C(=O)c1cc(F)ccc1Oc1nncnc1N1CC2(CCN(Cc3ccc4c(cc(C(=O)NC)n4CCO)c3C)CC2)C1)C(C)C [Compound 152, 5-((2-(6-(2-(ethyl(isopropyl)carbamoyl)-4-fluorophenoxy)-1,2,4-triazin-5-yl)-2,7-diazaspiro[3.5]nonan-7-yl)methyl)-1-(2-hydroxyethyl)-N,4-dimethyl-1H-indole-2-carboxamide]
- GI50 [1]: 369 nM
- IC50 [2]: 357 nM

SMILES: CCN(C(=O)c1cc(F)ccc1Oc1nncnc1N1CC2(CCN(CC3CCN(c4ccc(C#N)nn4)CC3)CC2)C1)C(C)C [Compound 47]
- GI50 [1]: 3 nM
- IC50 [2]: 2.6 nM

SMILES: CCN(C(=O)c1cc(F)ccc1Oc1nncnc1N1CC2(CCN(CC3CCN(c4cc(C(F)(F)F)cnn4)CC3)CC2)C1)C(C)C [Compound 45]
- GI50 [1]: 7 nM
- IC50 [2]: 3.9 nM

SMILES: CCN(C(=O)c1cc(F)ccc1Oc1nncnc1N1CC2(CCN(Cc3c(C)cc(C)[nH]c3=O)CC2)C1)C(C)C [Compound 58]
- GI50 [1]: 230 nM
- IC50 [2]: 114 nM

SMILES: CCN(C(=O)c1cc(F)ccc1Oc1nncnc1N1CC2(CCN(CC3CCN(c4cccc(C(N)=O)n4)CC3)CC2)C1)C(C)C [Compound 119]
- GI50 [1]: 3 nM
- IC50 [2]: 2.3 nM

SMILES: CCN(C(=O)c1cc(F)ccc1Oc1nncnc1N1CC2(CCN(CC3CCN(c4cc(OC)cnn4)CC3)CC2)C1)C(C)C [Compound 89]
- GI50 [1]: 4 nM
- IC50 [2]: 2.8 nM

SMILES: CCN(C(=O)c1cc(F)ccc1Oc1nncnc1N1CC(C2(N(CCO)Cc3ccc4[nH]c(C#N)cc4c3C)CC2)C1)C(C)C [Compound 163]
- GI50 [1]: 49 nM
- IC50 [2]: 4.9 nM

SMILES: CCN(C(=O)c1cc(F)ccc1Oc1nncnc1N1CC2(CCN(Cc3ccc(NCC#N)cc3C)CC2)C1)C(C)C [Compound 61]
- GI50 [1]: 110 nM
- IC50 [2]: 89.4 nM

SMILES: CCN(C(=O)c1cc(F)ccc1Oc1nncnc1N1CC2(CCN(CC3CCN(Cc4c(C)cc(C)[nH]c4=O)CC3)CC2)C1)C(C)C [Compound 138]
- GI50 [1]: 409 nM
- IC50 [2]: 102 nM
